In PubChem BioAssay (NCI):
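Protocol summary: plate cells (96-well), add compound at 5 concentrations, incubate 48 h, interpolate endpoints linearly. TGI is the concentration that stops growth completely.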

Experiments:
Experiment in all cases: NCI tumour cell line growth inhibition, 48 h
COLO 205 colon = test system: COLO 205 colon
RPMI-8226 leukemia = test system: RPMI-8226 leukemia
KM12 colon = test system: KM12 colon
MDA-MB-231 breast = test system: MDA-MB-231 breast
UO-31 renal = test system: UO-31 renal
SK-MEL-5 melanoma = test system: SK-MEL-5 melanoma
DU-145 prostate = test system: DU-145 prostate
SF-268 CNS = test system: SF-268 CNS
CAKI-1 renal = test system: CAKI-1 renal
HOP-62 NSCLC = test system: HOP-62 NSCLC
T-47D breast = test system: T-47D breast
HOP-92 NSCLC = test system: HOP-92 NSCLC
NCI-H522 lung = test system: NCI-H522 lung
TK-10 renal = test system: TK-10 renal
A498 renal = test system: A498 renal
SNB-75 CNS = test system: SNB-75 CNS
NCI-H23 lung = test system: NCI-H23 lung
A549 NSCLC = test system: A549 NSCLC
SNB-19 CNS = test system: SNB-19 CNS
SK-MEL-2 melanoma = test system: SK-MEL-2 melanoma
HS 578T breast = test system: HS 578T breast
IGROV1 ovarian = test system: IGROV1 ovarian
CCRF-CEM leukemia = test system: CCRF-CEM leukemia
BT-549 breast = test system: BT-549 breast
HT29 colon = test system: HT29 colon
786-0 renal = test system: 786-0 renal
RXF 393 renal = test system: RXF 393 renal
PC-3 prostate = test system: PC-3 prostate
MALME-3M melanoma = test system: MALME-3M melanoma
SK-MEL-28 melanoma = test system: SK-MEL-28 melanoma
OVCAR-8 ovarian = test system: OVCAR-8 ovarian
HCT-116 colon = test system: HCT-116 colon
SF-295 CNS = test system: SF-295 CNS
SK-OV-3 ovarian = test system: SK-OV-3 ovarian
MCF7 breast = test system: MCF7 breast
HL-60(TB) leukemia = test system: HL-60(TB) leukemia
UACC-62 melanoma = test system: UACC-62 melanoma
UACC-257 melanoma = test system: UACC-257 melanoma
NCI-H226 lung = test system: NCI-H226 lung
M14 melanoma = test system: M14 melanoma
MOLT-4 leukemia = test system: MOLT-4 leukemia
OVCAR-5 ovarian = test system: OVCAR-5 ovarian
EKVX NSCLC = test system: EKVX NSCLC
U251 CNS = test system: U251 CNS
K-562 leukemia = test system: K-562 leukemia
SR leukemia = test system: SR leukemia
ACHN renal = test system: ACHN renal
MDA-N = test system: MDA-N
NCI/ADR-RES ovarian = test system: NCI/ADR-RES ovarian
MDA-MB-435 = test system: MDA-MB-435
LOX IMVI melanoma = test system: LOX IMVI melanoma
SN12C renal = test system: SN12C renal
SW-620 colon = test system: SW-620 colon
HCC-2998 colon = test system: HCC-2998 colon
OVCAR-4 ovarian = test system: OVCAR-4 ovarian
SF-539 CNS = test system: SF-539 CNS
HCT-15 colon = test system: HCT-15 colon
OVCAR-3 ovarian = test system: OVCAR-3 ovarian
NCI-H460 lung = test system: NCI-H460 lung

Measured: TGI

CC(C)(C)C1=NC(=P(c2ccccc2)(c2ccccc2)c2ccccc2)C(=O)O1
56.5 µM: SNB-75 CNS
90.8 µM: NCI-H522 lung
not listed: HCC-2998 colon | OVCAR-4 ovarian | SF-539 CNS | HCT-15 colon | OVCAR-3 ovarian | NCI-H460 lung
> 100 µM: all other assays above

COc1cc(/C=C2\C[C@H]3[C@@H]4CC=C5C[C@@H](OC(C)=O)CC[C@]5(C)[C@H]4CC[C@]3(C)\C2=N\O)cc(OC)c1OC
17.8 µM: COLO 205 colon
3.08 µM: RPMI-8226 leukemia
> 90.8 µM: BT-549 breast
> 60.2 µM: CAKI-1 renal
95 µM: UO-31 renal
13 µM: SF-295 CNS
18.6 µM: PC-3 prostate
> 43.3 µM: SNB-75 CNS | 786-0 renal
> 72.1 µM: SK-MEL-28 melanoma
> 49.8 µM: NCI-H522 lung
> 32.8 µM: ACHN renal
15.8 µM: HL-60(TB) leukemia
> 86.3 µM: U251 CNS
> 30.6 µM: CCRF-CEM leukemia
> 25.5 µM: MOLT-4 leukemia
> 60.9 µM: MALME-3M melanoma
> 88.9 µM: NCI/ADR-RES ovarian
76.6 µM: SK-MEL-2 melanoma
9.43 µM: HOP-92 NSCLC
> 68.4 µM: HT29 colon
> 81.9 µM: EKVX NSCLC
> 92.4 µM: SF-539 CNS
> 83.7 µM: OVCAR-4 ovarian
14.7 µM: SK-MEL-5 melanoma
45.6 µM: UACC-62 melanoma
14.8 µM: SR leukemia
5.22 µM: T-47D breast
38.4 µM: LOX IMVI melanoma
4.28 µM: RXF 393 renal
> 91.3 µM: MDA-MB-435
not listed: A498 renal
> 100 µM: all other assays above

O=C(CSc1nnc(-c2ccccn2)s1)N/N=C/c1ccc([N+](=O)[O-])cc1
49.1 µM: MDA-MB-231 breast
41.2 µM: U251 CNS
79 µM: TK-10 renal
42.3 µM: HOP-92 NSCLC
10.3 µM: SNB-75 CNS
75.3 µM: A498 renal
71.9 µM: SF-268 CNS
92.5 µM: SNB-19 CNS
37.3 µM: RXF 393 renal
49.5 µM: DU-145 prostate
4.19 µM: UO-31 renal
not listed: RPMI-8226 leukemia | EKVX NSCLC | HCC-2998 colon
> 100 µM: all other assays above
